Data set [1] in a line: Cytotoxicity in HepG2.2.15 cells (CellTiter Glo). Conditions: human, highest concentration 150 μM. The class given is cell-based. The method, then: Test 2: Cytotoxicity and Selectivity Index
Methods of Testing Cytotoxicity and Selectivity Index
The serial diluted compound was added to a 384 wells plate at 50 μL HepG2.2.15 cell per well (3000 cells per well), the highest final concentration in the experiment is 150 μM (200 fold dilution). The plate was cultured at 37° C. in an incubator with C02 for 4 days, and cytotoxicity of the compound was detected using CellTiter Glo agent.
The cytotoxicity of the compound was calculated using the following formulate, cytotoxicity (%)=100−(detection value/mean of DMSO control wells values×100). CC50 values were calculated by a four parametric nonlinear regression model using Graphpad Prism 5 software to manage concentration−cytotoxicity (%). […]
(In general: In ATP-based viability assays light output follows the ATP content of the culture.)

Data set [2] has as its system HBV. The data set is described as follows: Anti HBV activity in vitro, viral DNA from HepG2.2.15 cells quantified by qPCR. The class given is cell-based. To be noted: Hepatitis B virus, qPCR of viral DNA in supernatant, read-out: EC50 against HBV replication. As for the experimental part: Test 1: Test Method of EC50 of Anti HBV
HBV Cell Line and Culture Conditions
HepG2.2.15 (SELLS, PNAS, 1987 and SELLS, JV, 1988) chromosomes have an integrated complete HBV genome, and stably express viral RNA and viral protein. HepG2.2.15 cells can secrete mature HBV particles, HBsAg and HBeAg to medium. HepG2.2.15 cells were cultured in DMEM containing 10% fetal bovine serum, 100 U/mL penicillin, 100 U/mL streptomycin, 1% non essential amino acid, 1 mM sodium pyruvate and 300 µg/mL G418.
Viral particles DNA secreted from HepG2.2.15 cells can be quantified by qPCR, and the effect of the compound on viral replication can be detected.
Test of Anti HBV Activity In Vitro
8000 HepG 2.2.15 cells per well were seeded into a 96-well plate, the plate was cultured at 37° C. and 5% CO2 for 3 days till the cells grew to full wells. Old liquid medium can be removed and replaced with new medium (200 μL) on day 0.
Formulating the compound and treating the cells in the experiment of anti virus: the compound was dissolved in DMSO to a concentration of 30 mM, and then the compound solution was diluted with DMSO to a concentration of […], and then eight dilutions at 4 fold were performed, the highest concentration is 800 μM. The serial diluted compound was added to the above plate at 1 μL per well, the highest final concentration in the experiment is 4 μM (200 fold dilution). TDF (tenofovir dipiroxil fumarate, Selleck, Cat S1400) has a highest concentration of 4 μM as a positive control. 1 μL of DMSO was added in to the positive control well at a final concentration of 0.5%, TDF was added in to the positive control well at a final concentration of 1 μM.
Detection of Viral Genomic DNA by qPCR
Primer: HBV-For-202, […]; HBV-Rev-315, […]. Copies of virus can be calculated using a standard curve plotted by using plasmid containing HBV genome and using SYBR Premix Ex Taq II Takara DRR081S kit and 1 μL cell culture supernatant as a template. EC50 values of the compound on viral replication were calculated by a four parametric nonlinear regression model using Graphpad Prism 5 software to manage concentration—viral copy number.

Data set [3] is described as follows: PK test on SD rats. To be noted: for AUC(0-inf) / AUC(0-t) / Tmax: male, rat, plasma. The class given is in vivo. As for the experimental part: The PK test method of the compound in vivo of SD rats (purchased from Hunan slack Jing Da laboratory animal Co., Ltd, weight: […] male, ages of 2-3 months, 3 per oral group, 3 per intravenous injection group):
The Rats were administered intragastrically with the test compound at doses of 2.5 mg/kg or 5 mg/kg or administered intravenously with the test compound at doses of 1 mg/kg.
Blood samples were taken at 0.083, 0.25, 0.5, 1, 2, 5, 7 and 24 hours from vein after the administration, and collected in anticoagulation tube with EDTA-K2. The test compounds were extracted from plasma samples by liquid-liquid extraction. Then quantitative analysis was performed on a triple-quadrupole tandem mass spectrometer using multiple reaction monitoring (MRM). Pharmacokinetic parameters were calculated using a noncompartmental method by WinNonLin 6.3 software.

Where only a bound is given, the exact number is not on record here.

Broadly, the CC50 is the concentration at which the toxic effect on the cells reaches its halfway point. High values mean lower toxicity to the cells, low ones greater toxicity to the cells. As usually defined, the EC50 is the concentration giving half of the maximal effect. The AUC(0-inf) is total exposure, with the tail of the curve extrapolated. A higher AUC(0-inf) goes with high exposure. As a reminder, the AUC(0-t) is the area under the concentration-time curve up to a stated or last time point. For orientation: Tmax means the time at which the peak concentration occurs. As to `COC(=O)C1=C(CN2CCN3C(=O)N(c4ccc(CCC(=O)O)cc4)C[C@@H]3C2)NC(c2nccs2)=N[C@H]1c1ccc(F)cc1Cl` [Example 13, 3-(4-((S)-7-(((R)-6-(2-chloro-4-fluorophenyl)-5-(methoxycarbonyl)-2-(thiazol-2-yl)-3,6-dihydropyrimidin-4-yl)methyl)-3-oxohexahydroimidazo[1,5-a]pyrazin-2(3H)-yl)phenyl)propionic Acid], the CC50 at 4 days in data set [1] is more than 150000 nM. Further, in data set [2], the concentration giving a half-maximal response (EC50) was determined as 4 nM. Further, in data set [3] (iv, 1 mg/kg), the AUC(0-inf) amounted to 1320 ng·h/mL, the AUC(0-t) was 1320 ng·h/mL and the Tmax worked out at 4.98 min. For the same molecule, in data set [3] (po, 5 mg/kg), the AUC(0-inf) amounted to 3080 ng·h/mL, the AUC(0-t) was found to be 3050 ng·h/mL, the Tmax amounted to 30 min and the F turned out to be 31.2%.
`COC(=O)C1=C(CN2CCN3C(=O)N(c4ccc(CC(=O)O)cc4)C[C@@H]3C2)NC(c2nccs2)=N[C@H]1c1ccc(F)cc1Cl` [Example 14, 2-(4-((S)-7-(((R)-6-(2-chloro-4-fluorophenyl)-5-(methoxycarbonyl)-2-(thiazol-2-yl)-3,6-dihydropyrimidin-4-yl)methyl)-3-oxohexahydroimidazo[1,5-a]pyrazin-2(3H)-yl)phenyl)acetic Acid]: in data set [1], the CC50 at 4 days was more than 150000 nM. The EC50 in data set [2] stood at 7 nM. Moreover, in data set [3] (iv, 1 mg/kg), the area under the curve AUC(0-inf) was determined as 684 ng·h/mL, the AUC(0-t) came out at 680 ng·h/mL and the Tmax was 4.98 min. In addition, in data set [3] (po, 5 mg/kg), the AUC(0-inf) was 2250 ng·h/mL, the AUC(0-t) came to 2250 ng·h/mL, the Tmax is 30 min and the F is 44%.
As to `COCC(C)(C)NC(=O)CCc1ccc(N2C[C@@H]3CN(CC4=C(C(=O)OC)[C@H](c5ccc(F)cc5Cl)N=C(c5nccs5)N4)CCN3C2=O)cc1` [Example 44, (R)-methyl 4-(2-chloro-4-fluorophenyl)-6-(((S)-2-(4-(3-((1-methoxy-2-methylpropan-2-yl)amino)-3-oxopropyl)phenyl)-3-oxohexahydroimidazo[1,5-a]pyrazin-7(1H)-yl)methyl)-2-(thiazol-2-yl)-1,4-dihydropyrimidine-5-carboxylate], the CC50 at 4 days in data set [1] is more than 150000 nM. Also, the EC50 in data set [2] stood at 10 nM.
With `COC(=O)C1=C(CN2CCN3C(=O)N(c4ccc(CCC(=O)O)cc4)C[C@@H]3C2)NC(c2nccn2C)=NC1c1ccc(F)cc1Cl` (stereo partly drawn) [Example 45, 3-(4-((8aS)-7-((-6-(2-chloro-4-fluorophenyl)-5-(methoxycarbonyl)-2-(1-methyl-1H-imidazol-2-yl)-3,6-dihydropyrimidin-4-yl)methyl)-3-oxohexahydroimidazo[1,5-a]pyrazin-2(3H)-yl)phenyl)propionic Acid], the CC50 at 4 days in data set [1] was more than 150000 nM. For the same molecule, in data set [2], the EC50 was 8 nM.
With `COC(=O)C1=C(CN2CCN3C(=O)N(c4ccc(C(NC(=O)OC(C)(C)C)C(=O)O)cc4)C[C@@H]3C2)NC(c2nccs2)=N[C@H]1c1ccc(F)cc1Cl` (stereo partly drawn) [Example 46, 2-((tert-butoxycarbonyl)amino)-2-(4-((S)-7-(((R)-6-(2-chloro-4-fluorophenyl)-5-(methoxycarbonyl)-2-(thiazol-2-yl)-3,6-dihydropyrimidin-4-yl)methyl)-3-oxohexahydroimidazo[1,5-a]pyrazin-2(3H)-yl)phenyl)acetic Acid], in data set [1], the CC50 at 4 days was more than 150000 nM. Further, the EC50 in data set [2] was found to be 22 nM.
Regarding `COC(=O)C1=C(CN2CCN3C(=O)N(c4ccc(/C=C/C(=O)O)cc4)C[C@@H]3C2)NC(c2nccs2)=N[C@H]1c1ccc(F)cc1Cl` [Example 47, (E)-3-(4-((S)-7-(((R)-6-(2-chloro-4-fluorophenyl)-5-(methoxycarbonyl)-2-(thiazol-2-yl)-3,6-dihydropyrimidin-4-yl)methyl)-3-oxohexahydroimidazo[1,5-a]pyrazin-2(3H)-yl)phenyl)acrylic Acid], the CC50 at 4 days in data set [1] is more than 150000 nM. For the same molecule, the EC50 in data set [2] was 3 nM.
`COC(=O)C1=C(CN2CCN3C(=O)N(c4ccc(CCC(N)=O)cc4)C[C@@H]3C2)NC(c2nccs2)=N[C@H]1c1ccc(F)cc1Cl` [Example 48, (R)-methyl 6-(((S)-2-(4-(3-amino-3-oxopropyl)phenyl)-3-oxohexahydroimidazo[1,5-a]pyrazin-7(1H)-yl)methyl)-4-(2-chloro-4-fluorophenyl)-2-(thiazol-2-yl)-1,4-dihydropyrimidine-5-carboxylate] had a CC50 at 4 days in data set [1] of more than 150000 nM. In data set [2], the EC50 was 10 nM.
Take `COC(=O)C1=C(CN2CCN3C(=O)N(c4ccc(CCCNS(C)(=O)=O)cc4)C[C@@H]3C2)NC(c2nccs2)=N[C@H]1c1ccc(F)cc1Cl` [Example 49, (R)-methyl 4-(2-chloro-4-fluorophenyl)-6-(((S)-2-(4-(3-(methylsulfonylamino)propyl)phenyl)-3-oxohexahydroimidazo[1,5-a]pyrazin-7(1H)-yl)methyl)-2-(thiazol-2-yl)-1,4-dihydropyrimidin-5-carboxylate]: the CC50 at 4 days in data set [1] is more than 150000 nM. Moreover, in data set [2], the EC50 stood at 12 nM.
In turn, `COC[C@@H]1[C@H]2CN(c3ccc(CCC(=O)O)cc3)C(=O)N2CCN1CC1=C(C(=O)OC)[C@H](c2ccc(F)cc2Cl)N=C(c2nccs2)N1` [Example 51B] gave a CC50 at 4 days in data set [1] of more than 150000 nM. For the same molecule, the EC50 in data set [2] was determined as 9 nM.
In turn, `COC(=O)C1=C(CN2CCN3C(=O)N(c4nc(/C=C/C(=O)O)cs4)C[C@@H]3C2)NC(c2nccs2)=N[C@H]1c1ccc(F)cc1Cl` [Example 52, (E)-3-(2-((S)-7-(((R)-6-(2-chloro-4-fluorophenyl)-5-(methoxycarbonyl)-2-(thiazol-2-yl)-3,6-dihydropyrimidin-4-yl)methyl)-3-oxohexahydroimidazo[1,5-a]pyrazin-2(3H)-yl)-thiazol-4-yl)acrylic Acid] had a CC50 at 4 days in data set [1] of more than 150000 nM. Moreover, the EC50 in data set [2] stood at 13 nM.
In the case of `COC(=O)C1=C(CN2CCN3C(=O)N(c4ccc(/C=C(\C)C(=O)O)cc4)C[C@@H]3C2)NC(c2nccs2)=N[C@H]1c1ccc(F)cc1Cl` [Example 53, (E)-3-(4-((S)-7-(((R)-6-(2-chloro-4-fluorophenyl)-5-(methoxycarbonyl)-2-(thiazol-2-yl)-3,6-dihydropyrimidin-4-yl)methyl)-3-oxohexahydroimidazo[1,5-a]pyrazin-2(3H)-yl)phenyl)-2-methylacrylic Acid], the CC50 at 4 days in data set [1] is more than 150000 nM. Moreover, the 50% effective concentration (EC50) in data set [2] stood at 14 nM.
Consider `COC(=O)C1=C(CN2CCN3C(=O)N(c4ccc(/C(C)=C/C(=O)O)cc4)C[C@@H]3C2)NC(c2nccs2)=N[C@H]1c1ccc(F)cc1Cl` [Example 54, (E)-3-(4-((S)-7-(((R)-6-(2-chloro-4-fluorophenyl)-5-(methoxycarbonyl)-2-(thiazol-2-yl)-3,6-dihydropyrimidin-4-yl)methyl)-3-oxohexahydroimidazo[1,5-a]pyrazin-2(3H)-yl)phenyl)-2-butenoic Acid], for which the CC50 at 4 days in data set [1] is more than 150000 nM. Moreover, the EC50 in data set [2] was found to be 11 nM.
As to `COC(=O)C1=C(CN2CCN3C(=O)N(c4ccc(CCC(=O)O)cc4)C[C@@H]3[C@H]2CO)NC(c2nccs2)=N[C@H]1c1ccc(F)cc1Cl` [Example 59B], the CC50 at 4 days in data set [1] is more than 150000 nM. In addition, the EC50 in data set [2] amounted to 15 nM.

These data come from US11261190B2, “Dihydropyrimidine compounds and uses thereof in medicine” (SUNSHINE LAKE PHARMA CO., LTD., priority 2017, dated 2022).
